From US20060029555A1, “Compositions and methods for prevention of photoaging” (priority 2002, published 2006)

System: human elastin promoter
Test: Transgenic mouse model of photoaging: human elastin promoter/CAT reporter activity after solar simulating radiation
Assay type: in vivo, transgenic mice
Settings: topical application to backs about fifteen minutes before 20 MEDs of SSR, three consecutive days; CAT activity 24 hours after third phototreatment, compared with vehicle alone
Procedure: These mice express human elastin promoter activity in a tissue-specific and developmentally regulated manner. […] In addition, quantitative data can be obtained after only a single exposure to ultraviolet radiation. […] The transgenic mouse is then exposed to solar radiation and human elastin promoter activity in the mouse is determined.
Approximately fifteen minutes after topical application, the mice are exposed to 20 human minimal erythema doses (MEDs) of solar simulating radiation (SSR). […] This procedure is repeated over three consecutive days.
Mice are then sacrificed and skin harvested for determination of CAT activity 24 hours after the third phototreatment. […]
To measure the expression of the human elastin promoter/CAT reporter gene construct in the skin of transgenic mice and in fibroblast cultures established from these animals, CAT activity is determined. […] The homogenates are centrifuged at 10,000 ×g for 15 minutes at 4° C. and the protein concentration in the supernatant determined by a commercial protein assay kit (Bio-Rad Laboratories, Richmond, Calif.). […] The acetylated and non-acetylated forms of radioactive chloramphenicol are separated by thin-layer chromatography and CAT activity is determined by the radioactivity in the acetylated forms as a percent of the total radioactivity in each sample.

For `Cn1c(=O)c2c(ncn2C)n(C)c1=O` [caffeine], the “protection against photoaging and other sun-damage (human elastin promoter activity, CAT activity in skin)” value was “provides protection against photoaging and other sun-damage such as sunburn”.
